Measurements published in patent US20190018003A1, “TUMOR DISCRIMINATION METHOD, DIAGNOSTIC AGENT FOR TUMOR, AND SENSITIZER FOR TUMOR DIAGNOSIS” (TOTO LTD., priority 2017, published 2019).

Legend:
Type in all cases: cell-based, human
[1] = system: T24 urinary bladder cancer cells; assay: Co-culture in the same visual field, fluorescence of T24 cell region; details: Example 11, T24 cell line, ALA 2 mmol/l, particles 0.001 w/v %
Excerpt: Co-culture pertaining to the present example for having the tumor cells and the immortalized normal cells exist in the same visual field will be described with reference to FIGS. 1A and 1B. For the co-culture, there was used CytoSelect™ 24-Well Cell Co-Culture System (manufactured by COSMO BIO). The T24 cell line was subcultured in an MEM medium (MEM, GlutaMAX™ supplement (Thermo Fisher Scientific), 10 v/v % FBS (Thermo Fisher Scientific)). The cultured cells which reached a logarithmic growth phase 3 days or 4 days later were peeled off with Trypsin/EDTA (Thermo Fisher Scientific) and, after the reaction was terminated in an MEM medium, centrifuged. The cell pellet obtained was suspended in an MEM medium. The cell suspension was subjected to measurement of cell density and inoculated onto a well at a density of 4.4×10^4 cells/0.225 ml/well, the well having an insert 2 of an 8 mm diameter disposed for preparing a cell-free region therein, and cultured for 2 days to form a monolayer in region 3 around the insert 2.
WI-38 cells were subcultured in an MEM medium. […]
Detection of fluorescence was performed in the same manner as in Example 4 by using an inverted fluorescence microscope (ECLIPSE Ti-E, Nikon). Images having a visual field of 3300 μm (width)×2200 μm (length) were obtained, and relative fluorescence intensities were calculated in the same manner as in Example 5.

[2] = system: T24 urinary bladder cancer cells; assay: Fluorescence enhancement in T24 cells by simultaneous administration of fluorescent dye (ALA) and particles; details: Example 8, administration of fluorescent dye only, immediately after observation light irradiation
Protocol: An aqueous ALA solution (50 mmol/l) was mixed into an MEM medium (MEM, GlutaMAX™ supplement (Thermo Fisher Scientific)) to form a 4 mmol/l ALA solution. Further, an aqueous solution of light scattering particles (2) (ii) was mixed into an MEM medium to form light scattering particle solutions of 0.001, 0.002, and 0.02 w/v %.
Evaluation was performed as follows. The medium of the T24 cells on a 6-well plate, obtained in Example 3, was removed by an aspirator, and thereto was added 2 ml of PBS (−) (Thermo Fisher Scientific). Once again, PBS (−) was removed by an aspirator, thereto was added 2 ml of a mixed solution obtained by mixing 1 ml of the ALA solution and 1 ml of the light scattering particle solution, and the system was cultured under conditions of 3TC and 5 v/v % CO2 for 2 hours. Then, the mixed solution of the cells on the 6-well plate was removed by an aspirator, thereto was added 2 ml of HBSS (−) (Thermo Fisher Scientific) to wash the residue, HBSS (−) was removed again by an aspirator, to the residue was added 2 ml of HBSS (−), and the solution was used for detection.
Detection of fluorescence was performed in the same manner as in Example 4 by using an inverted fluorescence microscope and, from the images acquired, fluorescence intensities were obtained and relative fluorescence intensities were calculated.

[3] = system: DLD-1 colon cancer cells; assay: Fluorescence enhancement in DLD-1 cells by separate administration of fluorescent dye (ALA) and particles, fluorescence microscope; details: Example 6, ALA 2 mmol/l, particles 0.001 w/v %, immediately after observation light irradiation
Protocol: DLD-1 cells (DLD-1, JCRB9094) were prepared. This cell line was subcultured in an RPMI-1640 medium (RPMI-1640 medium (Life Technologies), 10 v/v % FBS (Life Technologies)). The cultured cells which reached a logarithmic growth phase 3 days or 4 days later were peeled off with Trypsin/EDTA (Thermo Fisher Scientific) and, after the reaction was terminated in an RPMI-1640 medium, centrifuged. The cell pellet obtained was suspended in an RPMI-1640 medium. The cell suspension was subjected to measurement of cell density, inoculated onto a 6-well plate at a density of 2.9×10^5 cells/2 ml/well, and cultured for 1 day.
An aqueous ALA solution (50 mmol/l) was mixed into an RPMI-1640 medium (Life Technologies) to form a 2 mmol/l ALA solution. […]
Evaluation was performed as follows. The medium of the DLD-1 cells on a 6-well plate, obtained in Example 3, was removed by an aspirator, and evaluation thereof was performed under conditions where PBS (−) and HBSS (−) in Example 4 were changed to RPMI-1640 medium and RPMI-1640 medium (no glutamine and no phenol red (Thermo Fisher Scientific), respectively, and the solution was used for detection of fluorescence.
Detection of fluorescence was performed in the same manner as in Example 5 by using an inverted fluorescence microscope and, from the acquired images, fluorescence intensities were obtained and relative fluorescence intensities were calculated.

Compound: NCC(=O)CCC(=O)O [fluorescent dye, 5-aminolevulinic acid]
- Relative fluorescence intensity [1]: 1.6
- Relative fluorescence intensity [2]: 1.0
- Relative fluorescence intensity [3]: 1.0
